The subject of test [1] is HLA-A*02:01 transgenic mouse. Nature of the test: Test 14: in vivo adjuvant activity, cocktail vaccine i (oily suspension formulation), IFNγ ELISPOT. As to conditions: added to cocktail vaccine i (oily suspension formulation); 0.04 nmol or 0.4 nmol per body, twice; FIG. 15 and 16. The protocol: (§1) Evaluation of In Vivo Adjuvant Activity in HLA-A*02:01 Transgenic Mouse
The in vivo adjuvant activity of the compound of Example 1 was evaluated in the following procedure. To a cocktail vaccine (oily suspension formulation) comprising Compound of formula 4 prepared in Reference example 8 and Peptide SEQ ID No. 3 prepared in Reference example 3 (hereinafter, referred to as “cocktail vaccine i”) was added the compound prepared in Example 1 to prepare a vaccine. The vaccine was administered to a HLA-A*02:01 transgenic mouse, and the adjuvant activity of the vaccine was evaluated by the method of testing antigen-specific CTL induction.
For example, the above oily suspension formulation was prepared as follows. […]
Cocktail vaccine i was injected to mice intradermally at the tail base area in an amount for administering 300 μg of Compound of formula 4 per body and 225 μg of Peptide SEQ ID No. 3 per body. […] Then, after removal of the supernatant from the wells, stained spots on the ELISPOT plate were counted.

Test [2] has as its system HLA-A*02:01 transgenic mouse. Briefly: Test 11: in vivo adjuvant activity, cocktail vaccine f (emulsified composition 1), IFNγ ELISPOT. The following applies: added to cocktail vaccine f (emulsified composition 1); 0.04 nmol or 0.4 nmol per body, twice; FIG. 10 and 11. The protocol: as §1
The in vivo adjuvant activity of the compound of Example 1 was evaluated in the following procedure. To a cocktail vaccine (emulsified composition 1) comprising Compound of formula 4 prepared in Reference example 8 and Peptide SEQ ID No. 3 prepared in Reference example 3 (hereinafter, referred to as “cocktail vaccine f”) was added the compound prepared in Example 1 to prepare a vaccine. The vaccine was administered to a HLA-A*02:01 transgenic mouse, and the adjuvant activity of the vaccine was evaluated by the method of testing antigen-specific CTL induction.
For example, the above emulsified composition 1 was prepared as follows. 95.8% (w/w) of soybean oil, 3% (w/w) of PEG-30 dipolyhydroxy stearate, and 1.2% (w/w) of polysorbate 80 were mixed to prepare an oil-phase mixture. The amount of the preparation was adjusted as appropriate. Compound of formula 4 and Peptide SEQ ID No. 3 were mixed with pH 2.5 buffer (10 mM tartaric acid, 10% trehalose) to adjust each concentration to 3 mg/mL and 2.25 mg/mL, respectively. The prepared peptide dilution was mixed with an equal volume of the oil-phase mixture to give an emulsified product, cocktail vaccine f. […] Then, after removal of the supernatant from the wells, stained spots on the ELISPOT plate were counted.

As for `CCCCCNc1nc(N)nc(C)c1Cc1ccc(CN(C)CCOCCOCCOCCOCCO)cc1OC` [Example 1, 1-(4-{[2-amino-4-methyl-6-(pentylamino)pyrimidin-5-yl]methyl}-3-methoxyphenyl)-2-methyl-5,8,11,14-tetraoxa-2-azahexadecan-16-ol·trifluoroacetate], the “CTL counts responsive to Peptide SEQ ID No. 1 or SEQ ID No. 4 compared with adding no compound” value in test [1] and in test [2] was “more” each time.

The values above are taken from patent publication US12427192B2, “Water soluble adjuvant and composition containing same” (Sumitomo Pharma Co., Ltd., priority 2019, dated 2025).
